# Patent US20260108476A1, “2,4 DNP and Prodrugs Thereof for Treatment of Cancer” (priority 2021, published 2026)
# Entries after “also recorded” stand apart in the source; their conditions may differ.
# Key:
# MCF10A/NLS-DAO cells = assay: Western blot of EMT markers in MCF10A/NLS-DAO cells; type: cell-based; conditions: D-Ala 10 nM, activation of nuclear ROS
# Description: FIG. 1B is a graph of experimental data showing the quantification of the relative levels of nuclear ROS shown as the ratio of fluorescence between the oxidized and reduced forms. FIG. 1C is a Western blot analysis showing increased EMT markers after activation of nuclear ROS with D-Ala (10 nM). FIG. 1D is a graph of experimental data showing proliferation curves comparing naïve (MCF10A) and D-Ala (10 nM) exposed MCF10A/NLS-DAO cells. Results are averages of at least 5 biologic replicates with (*) representing p<0.05.
# Nuclear ROS are sufficient and required to activate EMT and metastasis of breast cancer cells. ROS levels were measured in the nuclei of different breast cancer cell lines displaying vastly different tumorigenicity and metastatic potential using novel NLS-Orp1roGFP2 biosensors. […] Also, transformation of MCF10A by v-Src promoted a marked increase in nuclear ROS levels (FIGS. 1A & B). […] To directly link nuclear ROS with aggressive cancer behavior, a nucleus-targeted system (NLS-D-amino acid oxidase, NLS-DAO) was engineered that allows to generate ROS21 directly in the nucleus and expressed it into MCF10A cells to recreate, using a non-transformed cell background, this distinctive feature of metastatic breast cancer cell lines. […]
# A2780, M248, MES-SA, MX2 = assay: chromatin folding by PWS microscopy in cell line models; type: cell-based; conditions: for chromatin folding (structural alterations): FIG. 5A, five cell line models
# Source text: FIG. 5A is a graph showing structural alterations due to taxol treatment (Paclitaxel or Docetaxel) in contrast to digoxin for five cell line models (A2780, M248, MES-SA, MX2). Chemotherapeutic intervention increases while CPT agent (digoxin) decreases chromatin folding. Error bars: S.E. of 5 different cell lines. FIGS. 5B-5C are diagrams showing intercellular (FIG. 5B) and intra-network (FIG. 5C) transcriptional heterogeneity increases in cells treated with chemotherapy and decreases in cells treated with CPTs for critical biological processes: (1) cell cycle, (2) apoptosis, (3) proliferation, (4) transcription, (5) signaling, (6) differentiation, (7) glycolysis, (8) translation, (9) ion transport, (10) metabolism, (11) oxidation/reduction, (12) stress response, and (13) nucleosome assembly. Circle size: the number of genes within a network/process. Color: % change in transcription heterogeneity compared to controls. […] Digoxin reduces chromatin heterogeneity. Arrow: nuclei.
# Chromatin is a complex arrangement of DNA wrapped around structural and regulatory proteins that control the expression of genes directly involved in cellular function and phenotype. Local physicochemical changes broadly affect chromatin folding and alter gene expression patterns across the genome. In a non-limiting example, decoding the chromatin folding code and understanding how different agents affect folding dynamics at the nanoscale can be helpful to develop new diagnostic tools. The resolution of optical microscopy is limited by diffraction to >200 nm. Recently, a major breakthrough has been made in the emergence of super-resolution fluorescence microscopy that enabled development of a suite of label-free nanoscale imaging technologies including Partial Wave Spectroscopic (PWS) Microscopy (see, for example, FIG. 4). The main principle of PWS is a previously overlooked phenomenon that while sub-diffractional structures are not resolvable, they are still detectable through the analysis of interference of elastically scattered light. PWS can measure the statistics of macromolecular density distribution within live or fixed cells with sensitivity in the 20-200 nm length scales, which is ideally suited for the characterization of chromatin topology. It was by using PWS (and corroborated by electron microscopy) that heterogenization of chromatin folding was discovered as one of the earliest events in carcinogenesis across multiple cancer types. Consequently, PWS was turned into a robust diagnostics technology (nanocytology) and is now in clinical trials for early screening or prognostication of lung, colon, and prostate cancers.
# [1] = tested on: PY230 murine mammary tumor cells; assay: proliferation of PY230 cells under doxorubicin; type: cell-based; conditions: DXR 250 nM, within a few hours from application
# Description: (§1) FIGS. 2A-2B show heightened levels of nuclear ROS in persister chemotherapy-resistance cancer cells. FIG. 2A is a collection of images and graphs showing experimental data generated using NLS-Orp1roGFP2 biosensor to measure ROS in the nucleus of breast cancer cell lines. PY230 murine mammary tumor cells expressing NLS-Orp1roGFP2 were treated with doxorubicin (DXR, 250 nM) for the indicated amounts of times in plots of proliferation as well as fluorescence ratios indicate that persister cells have high levels of nuclear ROS and proliferate in the presence of chemotherapy mimicking clinical chemotherapy resistance where most cells initially die leaving persister ones that rapidly proliferate unabated by treatment. Induction of NLS-catalase, that removes ROS from the nucleus, resensitized persister cells to the killing effects of DXR. FIG. 2B is a collection of images showing mammary xenografts of luciferase-labeled transformed MCF10A constitutively expressing NLS-catalase under an inducible promoter rapidly grow and metastasize within 3 months of implantation. […]
# Nuclear ROS are sufficient and required to activate EMT and metastasis of breast cancer cells. ROS levels were measured in the nuclei of different breast cancer cell lines displaying vastly different tumorigenicity and metastatic potential using novel NLS-Orp1roGFP2 biosensors. […]
# [2] = tested on: v-Src transformed luciferase-expressing MCF10A xenografts; assay: mammary xenograft of v-Src transformed luciferase-expressing MCF10A; type: in vivo, NOD/SCID mice; conditions: doxorubicin combined with NLS-catalase, 2 months of combined therapies, assessed at month 7
# Description: as §1, with “DXR.” for “DXR. FIG. 2B is a collection of images showing mammary xenografts of luciferase-labeled transformed MCF10A constitutively expressing NLS-catalase under an inducible promoter rapidly grow and metastasize within 3 months of implantation.”
# Results in FIG. 2A, closely recapitulate the reality of most clinical cancer treatments that are effective at first eliminating the bulk tumor but that are become ineffective when the disease recur. […] Three months after implantation, metastases were clearly detected by luciferin-induced bioluminescence in the chest and head of most mice FIG. 2B. […]
# BT20 NLS Orp roGFP cells = assay: nuclear ROS by NLS-Orp1roGFP2 biosensor in BT20 cells; type: cell-based, human; conditions: BT20, varying concentrations of DNP, 24 hours
# Description: (§2) FIGS. 3A-3C show how DNP suppresses nuclear ROS in basal BT breast cancer cell lines.
# (§3) Nuclear ROS are sufficient and required to activate EMT and metastasis of breast cancer cells. ROS levels were measured in the nuclei of different breast cancer cell lines displaying vastly different tumorigenicity and metastatic potential using novel NLS-Orp1roGFP2 biosensors. […] Also, transformation of MCF10A by v-Src promoted a marked increase in nuclear ROS levels (FIGS. 1A & B). […] To directly link nuclear ROS with aggressive cancer behavior, a nucleus-targeted system (NLS-D-amino acid oxidase, NLS-DAO) was engineered that allows to generate ROS21 directly in the nucleus and expressed it into MCF10A cells to recreate, using a non-transformed cell background, this distinctive feature of metastatic breast cancer cell lines. […] Next, it was tested whether nuclear ROS contributed to treatment failure by promoting resistance to first line chemotherapeutic drugs, i.e. doxorubicin. It was also tested whether removing suppressing ROS specifically in the nucleus restored sensitivity to doxorubicin. The strategy of removing ROS from the nucleus is novel, targets a feature that seems unique to cancer cells and preserves redox signaling that happen in large part in the cytosol22. […]
# [3] = tested on: BT474 NLS Orp roGFP cells; assay: nuclear ROS by NLS-Orp1roGFP2 biosensor in BT474 cells; type: cell-based, human; conditions: BT474, varying concentrations of DNP, 24 hours
# Description: as §2, §3
# 28-day toxicity studies = type: in vivo; conditions: low doses
# Source text: (§4) In one embodiment, the compositions and methods of the disclosure relate to targeting oxidative stress upstream at the mitochondria that may be causative for many disorders, including, but not limited to, cancer, pain, and/or pain related conditions. There have been a variety of attempts to lower cellular stress, such as administering anti-oxidants, however these drugs have limited tissue penetration into the brain and lower ROSs after they have been formed. […] While not being bound to theory, it is postulated that DNP modulates the mitochondrial membrane potential having a significant impact at preventing ROS formation in isolated mitochondria and in the treated wildtype mice. DNP treatment 3-hours post-ischemia reduced cerebral infarct volume 40% by protecting the penumbra or “threaten tissue” and could provide similar benefits after a blast to protect inner hair cells from eminent cell death. DNP comes with the benefits of known risks as it was used 80-years ago for weight loss at high doses (˜300 mg) in over 100,000 people, however shown recently in models of neurodegeneration at very low hermetic doses to improve cognition and learning. The pharmacology, which is pleiotropic, appears to provide broad neuroprotection by lowering ROS/mTOR and increasing protective factors such as CAMP, CREB, and BDNF, could be useful for treating hearing loss.
# ion channels = assay: inhibition of ion channels
# Source text: as §4
# CYP = assay: inhibition of CYP; type: in vitro ADME
# Source text: as §4
# Caco-2 = assay: Caco-2; type: in vitro ADME
# Source text: as §4
# [4] = pharmacokinetics of DNP in rats; type: in vivo
# [5] = at the doses proposed
# Description: The hypothesis that mitigating mitochondrial dysfunction via scavenging ROS prevents chromatin changes that promote treatment resistance is tested using DNP, a compound in development with uncoupling activity already in Phase I trials for Huntington's Disease. DNP works largely by reducing the mitochondrial electrochemical potential reducing the output of ROS.
# [6] = treatment 3-hours post-ischemia; cited from earlier work
# wildtype mice = conditions: chronic, extraordinarily low dose; cited from earlier work
# [7] = tested on: models of neurodegeneration; conditions: very low hermetic doses; cited from earlier work
structure (smiles),measurement,setting,value
C[C@@H](N)C(=O)O [D-Ala],EMT markers,MCF10A/NLS-DAO cells,increased
CC(=O)O[C@@]12CO[C@@H]1C[C@H](O)[C@@]1(C)C(=O)[C@H](O)C3=C(C)[C@@H](OC(=O)[C@H](O)[C@@H](NC(=O)OC(C)(C)C)c4ccccc4)C[C@@](O)([C@@H](OC(=O)c4ccccc4)[C@H]21)C3(C)C [Docetaxel],chromatin folding (structural alterations),"A2780, M248, MES-SA, MX2",increases
C[C@H]1O[C@@H](O[C@H]2[C@@H](O)C[C@H](O[C@H]3[C@@H](O)C[C@H](O[C@H]4CC[C@@]5(C)[C@H](CC[C@@H]6[C@@H]5C[C@@H](O)[C@]5(C)[C@@H](C7=CC(=O)OC7)CC[C@]65O)C4)O[C@@H]3C)O[C@@H]2C)C[C@H](O)[C@@H]1O [digoxin],chromatin folding (structural alterations),"A2780, M248, MES-SA, MX2",decreases
same,"chromatin heterogeneity, live cell PWS","A2780, M248, MES-SA, MX2; FIG. 5D",reduces
COc1cccc2c1C(=O)c1c(O)c3c(c(O)c1C2=O)C[C@@](O)(C(=O)CO)C[C@@H]3O[C@H]1C[C@H](N)[C@H](O)[C@H](C)O1 [doxorubicin],effect on cell population (proliferation),[1],eliminated the bulk of cells
same,metastatic disease and primary tumor (bioluminescence),[2],complete remission of metastatic disease as well as significant regression of primary tumor
"O=[N+]([O-])c1ccc(O)c([N+](=O)[O-])c1 [DNP, 2,4-dinitrophenol]",levels of nuclear ROS (ox/red Orp1roGFP2 ratio),BT20 NLS Orp roGFP cells,strongly suppresses; also recorded: clear concentration dependence of nROS reduction
same,levels of nuclear ROS (ox/red Orp1roGFP2 ratio),[3],strongly suppresses; also recorded: clear concentration dependence of nROS reduction
same,Safety Index,28-day toxicity studies; 28-day toxicity studies,≥ 10 ×
same,toxicity,28-day toxicity studies; 28-day,not toxic
same,inhibition of ion channels,ion channels,no inhibition
same,inhibition of CYP,CYP,no inhibition
same,"inhibition, Caco-2",Caco-2,no inhibition
same,distribution,[4],good
same,oral bioavailability,[4],orally bioavailable
same,half-life,"[4]; rat, plasma",~360 min
same,safety,[5],safe
same,reduction of cerebral infarct volume,[6],40%
same,lifespan versus untreated mice,wildtype mice,living longer than untreated mice
same,cognition and learning,[7],improve
CC(=O)O[C@H]1C(=O)[C@@]2(C)[C@H]([C@H](OC(=O)c3ccccc3)[C@]3(O)C[C@H](OC(=O)[C@H](O)[C@@H](NC(=O)c4ccccc4)c4ccccc4)C(C)=C1C3(C)C)[C@]1(OC(C)=O)CO[C@@H]1C[C@@H]2O [Paclitaxel],chromatin folding (structural alterations),"A2780, M248, MES-SA, MX2",increases
